From patent publication US4342780A, “Method of depleting endogenous monoamines” (Merrell-Toraude et Cie, priority 1981, dated 1982)

Experiments:
[1] = Deaths in mice after repeated i.p. doses (Table II footnotes); assay type: in vivo, mice (Swiss Albino); details: 100 mg/kg i.p. twice daily, three days; number dead of animals
Procedure: (§1) The test animals (e.g. mice or rats) are given the test compound in a suitable vehicle, either orally or by injection, each day over the period of time desired. The animals are kept on a constant time cycle, and body weights are measured daily. The animals are sacrificed by decapitation 12 to 24 hours after receiving the last dose of the test compound. Control animals receive the vehicle alone.
(§2) Table II, shown below, sets forth the results obtained by testing particular compounds of Formula I in the above-described procedure in mice (Swiss Albino) after i.p. administration of the compound twice daily for three days: […]

[2] = tested on: catecholamine content (norepinephrine, dopamine); experiment: Catecholamine content in organs of mice after repeated i.p. doses (Table II); assay type: in vivo, mice (Swiss Albino); details: three days, 12 h after 6th dose, vs control
Procedure: as §1
(§3) Immediately after death, the organs (brain, heart, and kidney) are removed and homogenized either in 50 ml phosphate buffer pH 6.8 for AADC determination or in ice-cold 0.4 M HClO4 containing 0.05% (w/v) EDTA and 0.1% (w/v) sodium bisulfite for catecholamine determination. AADC activity is determined by the ^14 CO2 trapping method of J. Christenson, supra (see Example 14) using DL-[1-^14 C]-dopa as the substrate. Catecholamines are determined by centrifuging the homogenate, adding the supernatant to alumina buffered to pH 8.0-8.4 to adsorb the catecholamines, re-extracting the catecholamines from the alumina with 0.2 M HClO4 and determining the catecholamines in the extracts using known procedures, such as by reversed-phase ion-pair HPLC with electrochemical detection.
as §2

AADC [3] = experiment: Ex vivo AADC activity in organs of mice after repeated i.p. doses (Table II); design: species or system mice (Swiss Albino); details: three days, 12 h after 6th dose, vs control
Procedure: as §1, §3, §2

AADC [4] = biological target: T1, AADC (Sus scrofa, UniProt P80041); experiment: In vitro AADC inhibition: time of 90% inactivation (14CO2 trapping, DL-[1-14C]-dopa substrate); assay type: biochemical, hog; design: key to RATING: ++++: The relative activities of the compounds are rated by the given number of "plus" signs; +++: The relative activities of the compounds are rated by the given number of "plus" signs; 0-+: The relative activities of the compounds are rated by the given number of "plus" signs; details: CONC. 100 μM; for TIME OF 90% INACTIVATION: pH 7.4, 37° C.; for RATING: relative activity
T1 sequence (P80041 1-486): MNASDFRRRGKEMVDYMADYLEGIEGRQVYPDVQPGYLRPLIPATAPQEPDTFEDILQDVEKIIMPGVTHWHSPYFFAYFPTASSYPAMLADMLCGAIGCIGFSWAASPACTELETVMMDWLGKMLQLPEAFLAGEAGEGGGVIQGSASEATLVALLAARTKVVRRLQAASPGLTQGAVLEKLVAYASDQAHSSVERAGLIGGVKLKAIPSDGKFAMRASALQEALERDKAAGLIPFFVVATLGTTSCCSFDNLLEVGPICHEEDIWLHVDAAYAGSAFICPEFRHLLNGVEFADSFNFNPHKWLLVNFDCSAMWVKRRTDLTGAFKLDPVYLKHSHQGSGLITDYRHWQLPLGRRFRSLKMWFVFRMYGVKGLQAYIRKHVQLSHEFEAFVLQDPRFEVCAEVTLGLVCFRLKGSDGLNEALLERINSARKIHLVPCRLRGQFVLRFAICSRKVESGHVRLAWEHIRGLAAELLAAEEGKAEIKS
Procedure: AADC can be purified from hog kidney by the general method of J. Christenson et al. Archs. Biochem. Biophys., 141, 356 (1970) and G. Lancaster et al., Can. J. Biochem., 50, 791 (1972), and the specific activity of the enzyme is determined by the ^14 CO2 trapping method using DL-[1-^14 C]-dopa as the substrate (see Christenson et al.). One unit of activity is defined as the total amount of enzyme which produces 1 n mol of CO2 per minute, with DL-[1-^14 C]-dopa as substrate.
To 100 μl of 50 mM-phosphate buffer pH 7.4 containing 100 mM-mercapto-ethanol are added 5 μl of an aqueous solution containing the test compound at the desired concentration and 50 μl of an aqueous solution containing 2 units of AADC. The mixture is incubated at 37° C. and 20 μl aliquots are removed at various times. The AADC activity remaining in each aliquot is measured by the CO2 trapping method of Christenson.
The relative activities of the compounds are rated by the given number of "plus" signs.

AADC [5] = experiment: Ex vivo AADC activity in brain of rats after repeated i.p. doses (Table II, footnote c); details: 100 mg/kg i.p. twice daily, three days, 12 h after 6th dose, vs control
Procedure: as §1, §3, §2

[6] = tested on: endogenous catecholamine and 5-HT levels; experiment: Effect on endogenous catecholamine and 5-HT levels in brain and heart (general statement); assay type: in vivo
[7] = tested on: catecholamine content (norepinephrine, dopamine); experiment: Catecholamine content in organs of rats after repeated i.p. doses (Table II, footnote c); assay type: in vivo; details: 100 mg/kg i.p. twice daily, three days, 12 h after 6th dose, vs control
Procedure: as §1, §3, §2

SMILES	dead [1]	% CHANGE NOREPINEPHRINE Brain ([2]; 10 mg/kg i.p. twice daily, * not significant) [%]	% CHANGE NOREPINEPHRINE Heart ([2]; 10 mg/kg i.p. twice daily, * not significant (-25*, -7*)) [%]	% CHANGE DOPAMINE Brain ([2]; 10 mg/kg i.p. twice daily, * not significant (-25*, -9*)) [%]	% CHANGE NOREPINEPHRINE Brain ([2]; 100 mg/kg i.p. twice daily) [%]	% CHANGE NOREPINEPHRINE Heart ([2]; 100 mg/kg i.p. twice daily) [%]	% CHANGE DOPAMINE Brain ([2]; 100 mg/kg i.p. twice daily, * not significant (-35*)) [%]	% CHANGE AADC Brain (AADC [3]; 10 mg/kg i.p. twice daily) [%]	% CHANGE AADC Kidney (AADC [3]; 10 mg/kg i.p. twice daily) [%]	% CHANGE AADC Brain (AADC [3]; 100 mg/kg i.p. twice daily) [%]	% CHANGE AADC Kidney (AADC [3]; 100 mg/kg i.p. twice daily) [%]	TIME OF 90% INACTIVATION (AADC [4]) [min]	RATING (AADC [4])	% CHANGE AADC Brain (AADC [5]) [%]	selectivity (brain catecholamines lowered, not heart, not brain 5-HT) [6]	% CHANGE DOPAMINE Brain [7] [%]	% CHANGE NOREPINEPHRINE Brain [7] [%]	% CHANGE NOREPINEPHRINE Heart [7] [%]
Cc1ccc(CC(N)(CF)C(=O)O)c(O)c1 (centres unmarked) [2-OH4-methyl phenyl, 2-amino-2-fluoromethyl-3-(2-hydroxy-4-methylphenyl)propionic acid]	2/5	0	-7	-9	-69	-75	-35	-39	-70	-99	-99.5	1	+++	–	–	–	–	–
NC(CF)(Cc1ccc(O)cc1)C(=O)O (centres unmarked) [Example 4-OH-phenyl, 2-Amino-2-fluoromethyl-3-(4-hydroxyphenyl)propionic acid]	–	–	–	–	–	–	–	–	–	–	–	> 300	0-+	-88	not found	-88	-54	-45
